From patent publication US7687473B2, “5-amino-4-imidazolecarboxamide riboside and its nucleobase as potentiators of antifolate transport and metabolism” (Health Research, Inc., priority 2005, dated 2010)
Where two headings read alike, the source gives them in different places.

Columns and labels:
CCRF-CEM cells [1] = assay: [3H]MTX uptake (initial velocity and 30 min accumulation) in CCRF-CEM cells; format: cell-based, human; settings: for Potentiation of [3H]MTX uptake at 30 min: compound at 0.5 mM, 10 min pre-incubation with TMTX
Protocol: Quantitation of folate and antifolate uptake. The method is essentially as follows. Briefly, logarithmically growing (3-5×10^5/ml) CCRF-CEM cells were harvested at room temperature by centrifugation at 1000×g for 5 min. After washing with the appropriate medium, cells were suspended at ≈2×10^7 cells/ml for use in transport studies. […] Anion-free MHS contains 250 mM sucrose and 20 mM HEPES, titrated to pH 7.4 with MgO. […] Uptake was measured as a function of time for 30 min (for rate and extent measurements) or over 5 min (studies requiring initial velocities). […] Uptake was terminated by diluting 100 μL samples into 1 ml of iced 0.9% NaCl. […] The supernatant was aspirated. The cell pellet was washed once with 1 ml iced 0.9% NaCl and centrifuged as above. The washed pellet was solubilized in 1 ml of 0.3% Triton X-100 by incubation for 60 min at 37° C. The solubilized pellet was transferred to a scintillation vial, 10 ml of Liquiscint (National Diagnostics, Atlanta, Ga.) was added and radioactivity was quantitated in a Beckman Model LS6500 liquid scintillation counter. Separate samples at the longest incubation time used in a particular experiment were harvested for HPLC analysis of intracellular contents as above, except that after the second wash the pellets were extracted with 1 ml boiling 0.1 M Na-phosphate, pH 5.5. The extract was clarified by centrifugation and the supernatant was filtered through an MPS-1 filter unit (Amicon) prior to HPLC analysis.

CCRF-CEM cells [2] = assay: cells; format: cell-based, human; settings: Homo sapiens, CCRF-CEM, read-out: EC50
Protocol: Inhibition of growth of human cell lines in vitro. Inhibition of growth of CCRF-CEM in continuous and intermittent drug exposures was measured. EC50 values were determined from plots of percent control growth versus the logarithm of drug concentration.
[…]; n=2). […]; n=2). Values presented are average±S.D. for n>2 and average±range for n=2. […] […]; EC50 data may therefore underestimate the biological potency.

[3] = 1 mM, 30 min incubation, TMTX present, Z absent

Row | Compound | Potentiation of [3H]MTX uptake at 30 min (CCRF-CEM cells [1]) | Ability to potentiate [3H]MTX uptake (CCRF-CEM cells [1]) | further results
1 | OC[C@H]1O[C@@H](n2cnc3c(O)ncnc32)C[C@@H]1O [deoxyinosine] | do not potentiate |  | 
2 | CCCC(=O)Nc1ncnc2c1ncn2[C@@H]1O[C@@H]2COP(=O)(O)O[C@H]2[C@H]1OC(=O)CCC [dibutyryl-cAMP] |  |  | 30 min accumulation of [3H]MTX compared to TMTX alone (CCRF-CEM cells [1]; [3]): lower 30 min accumulation; Initial velocity of [3H]MTX uptake compared to TMTX alone (CCRF-CEM cells [1]; [3]): reduced initial velocity
3 | O=CO [formate] |  | unable to potentiate | 
4 | NC(=O)CC[C@H](N)C(=O)O [glutamine] |  | unable to potentiate | 
5 | Nc1nc2nc[nH]c2c(=O)[nH]1 [guanine] | do not potentiate |  | 
6 | Nc1nc2c(ncn2[C@@H]2O[C@H](CO)[C@@H](O)[C@H]2O)c(=O)[nH]1 [guanosine] | do not potentiate | unable to potentiate | 
7 | O=c1[nH]cnc2nc[nH]c12 [hypoxanthine] | do not potentiate |  | 
8 | OC[C@H]1O[C@@H](n2cnc3c(O)ncnc32)[C@H](O)[C@@H]1O [inosine] | do not potentiate | unable to potentiate | 
9 | CSCC[C@H](N)C(=O)O [methionine] |  | unable to potentiate | 
10 | Nc1nc2[nH]cc(CCc3ccc(C(=O)N[C@@H](CCC(=O)O)C(=O)O)cc3)c2c(=O)[nH]1 [pemetrexed] |  |  | EC50 (CCRF-CEM cells [2]; 0-6 hr pulse exposure out of 120 hr, 50 μM Z): 320 ± 30 nM; EC50 (CCRF-CEM cells [2]; 0-6 hr pulse exposure out of 120 hr, absence of Z): 300 ± 10 nM; EC50 (CCRF-CEM cells [2]; 0-16 hr pulse exposure out of 120 hr, 50 μM Z): 102 ± 17.5 nM; EC50 (CCRF-CEM cells [2]; 0-16 hr pulse exposure out of 120 hr, absence of Z): 85.5 ± 6.5 nM; EC50 (CCRF-CEM cells [2]; 120 h, 120 hr continuous exposure, 50 μM Z): 19.8 ± 3.3 nM; EC50 (CCRF-CEM cells [2]; 120 h, 120 hr continuous exposure, absence of Z): 18.3 ± 3.4 nM
11 | NC(=O)c1[nH]nc([C@@H]2O[C@H](CO)[C@@H](O)[C@H]2O)c1O [pyrazofurin] |  | unable to potentiate | 
12 | Cc1cn([C@H]2C[C@H](O)[C@@H](CO)O2)c(=O)[nH]c1=O [thymidine] | do not potentiate |  | 
